Data reported in patent US11712434B2, “Compound having anti-cancer effect, and preparation method therefor and use thereof” (3D MEDICINES (BEIJING) CO., LTD., priority 2016, dated 2023).

Legend:
Assay in all cases: Cell proliferation assay (Alamar Blue)
Format in all cases: cell-based
[1] = system: 22RV1; details: Homo sapiens, 144 h; 22RV1 tumor cell line; 6 days culture
Experimental: (§1) 1. Instruments and Materials • Thermo 311 CO2 incubator; Haier biosafety cabinet; Molecular Devices microplate reader; Xiangyi brand L530 desktop low speed centrifuge; Olympus IX51 inverted fluorescence microscope, DMEM, RPMI 1640, MEM, DMEM/F12 1:1 medium, Fetal bovine serum, 0.25% trypsin solution, phosphate buffer (Thermo Fisher Shanghai Co., Ltd.); sigma dimethyl sulfoxide (DMSO), resazurin; 54 commercial tumor cell lines (including 26 liver cancer cell lines). Experimental drugs: compounds 1-12 and active drug Linifanib; chemotherapeutic drug Doxorubicin (HY-15142; Shanghai Qianyuan Biomedical Technology Co., Ltd.).
(§2) 2. Experimental Methods • 2.1 Cultivation of Different Cell Lines • 54 cell lines were cultured in a culture medium containing fetal bovine serum and placed in a 5% CO2 incubator at 37° C. for incubation. The cells were all grown in an adherent state, and the growth was observed under an inverted microscope, and subculture was performed when the cell confluence rate reached 80%-90%. The proportion and quantity of passage were determined by experimental needs. The ratio of subculture of this cell line was generally 1:2^˜1:3. • 2.2 Inhibition Effect on the Proliferation of Different Tumor Cell Lines • Cell test: 54 cell lines in logarithmic growth phase were inoculated in 96-well culture plates at 500^˜1×10^4/well (the optimal seeding density of each cell line was determined in pre-experiment), After incubating at 37° C. for 4 h in a 5% CO2 humidification incubator, added 10 μL of compounds 1-12 or Linifanib to each well, and tested 9 drug concentration gradients for each compound (diluted from the highest concentration of the test by 3.16 times). The solubility of each compound was different at a starting concentration of 100 or 30 μM, respectively. The QC reference compound Doxorubicin was added simultaneously to each cell line test, and the final drug concentrations were 10, 3.16, 1, 0.31, 0.1, 0.03, 0.01, 0.003, and 0.001 μM, respectively. In addition, a positive control group (100% inhibition) and a negative control group (0% inhibition) were set at the same time. The drug group was repeated for 2 wells per concentration, and the positive control group and the negative control group were repeated for 6 wells. After the culture was continued for 6 days in the incubator, AlamarBlue test operation was followed; • AlamarBlue test procedure: Incubated with 10 μL of AlamarBlue reagent per well for 1-4 h, shook for 1-2 min, MD microplate reader EX: 560 nm, EM: 590 nm wavelength to measure fluorescence, recorded the results, calculated the cell inhibition rate of the compound of the invention. Cell inhibition rate (%)=(A0% inhibition−A administration)/(A0% inhibition−A100% inhibition)×100%, and then using the method of nonlinear regression using GraphPad Prism 5.0 or MATILAB software (usually using four parameters) to graph and obtain a drug dose response curve to obtain an IC50 value of the compound of the present invention acting on a cancer cell line.

[2] = system: AN3CA; details: Homo sapiens, AN3-CA, 144 h; AN3CA tumor cell line; 6 days culture
Experimental: as §1, §2

[3] = system: Alexander cells; details: 144 h; Alexander cells liver cancer cell line; 6 days culture
Experimental: as §1, §2

[4] = system: HLF; details: 144 h; HLF liver cancer cell line; 6 days culture
Experimental: as §1, §2

[5] = system: HT1080; details: Homo sapiens, HT-1080, 144 h; HT1080 tumor cell line; 6 days culture
Experimental: as §1, §2

[6] = system: HUH1; details: Homo sapiens, HuH-1, 144 h; HUH1 liver cancer cell line; 6 days culture
Experimental: as §1, §2

[7] = system: Hep3B2.1-7; details: 144 h; Hep3B2.1-7 liver cancer cell line; 6 days culture
Experimental: as §1, §2

[8] = system: HuTu80; details: Homo sapiens, 144 h; HuTu80 tumor cell line; 6 days culture
Experimental: as §1, §2

[9] = system: JHH1; details: 144 h; JHH1 liver cancer cell line; 6 days culture
Experimental: as §1, §2

[10] = system: JHH2; details: JHH-2, 144 h; JHH2 liver cancer cell line; 6 days culture
Experimental: as §1, §2

[11] = system: JHH4; details: JHH-4, 144 h; JHH4 liver cancer cell line; 6 days culture
Experimental: as §1, §2

[12] = system: JHH6; details: 144 h; JHH6 liver cancer cell line; 6 days culture
Experimental: as §1, §2

[13] = system: JHH7; details: 144 h; JHH7 liver cancer cell line; 6 days culture
Experimental: as §1, §2

[14] = system: KASUMI-1; details: Homo sapiens, 144 h; KASUMI-1 (leukemia cells); 6 days culture
Experimental: as §1, §2

[15] = system: KM12; details: Homo sapiens, 144 h; KM12 tumor cell line; 6 days culture
Experimental: as §1, §2

[16] = system: LC-2-ad; details: Homo sapiens, 144 h; LC-2-ad tumor cell line; 6 days culture
Experimental: as §1, §2

[17] = system: NCI-H1648; details: Homo sapiens, 144 h; NCI-H1648 tumor cell line; 6 days culture
Experimental: as §1, §2

[18] = system: NCI-H1703; details: Homo sapiens, 144 h; NCI-H1703 (lung cancer cells); 6 days culture
Experimental: as §1, §2

[19] = system: NCI-H661; details: Homo sapiens, 144 h; NCI-H661 tumor cell line; 6 days culture
Experimental: as §1, §2

[20] = system: SK-HEP-1; details: Homo sapiens, SK-HEP1, 144 h; SK-HEP-1 liver cancer cell line; 6 days culture
Experimental: as §1, §2

[21] = system: SNU182; details: Homo sapiens, SNU-182, 144 h; SNU182 liver cancer cell line; 6 days culture
Experimental: as §1, §2

[22] = system: SNU398; details: Homo sapiens, SNU-398, 144 h; SNU398 liver cancer cell line; 6 days culture
Experimental: as §1, §2

[23] = system: SNU423; details: Homo sapiens, SNU-423, 144 h; SNU423 liver cancer cell line; 6 days culture
Experimental: as §1, §2

[24] = system: SNU739; details: SNU-739, 144 h; SNU739 liver cancer cell line; 6 days culture
Experimental: as §1, §2

[25] = system: SNU761; details: 144 h; SNU761 liver cancer cell line; 6 days culture
Experimental: as §1, §2

[26] = system: SNU886; details: SNU-886, 144 h; SNU886 liver cancer cell line; 6 days culture
Experimental: as §1, §2

[27] = system: T.T; details: Homo sapiens, TT, 144 h; T.T tumor cell line; 6 days culture
Experimental: as §1, §2

[28] = system: TE-6; details: Homo sapiens, 144 h; TE-6 tumor cell line; 6 days culture
Experimental: as §1, §2

SMILES | IC50 [1] | IC50 [2] | IC50 [3] | IC50 [4] | IC50 [5] | IC50 [6] | IC50 [7] | IC50 [8] | IC50 [9] | IC50 [10] | IC50 [11] | IC50 [12] | IC50 [13] | IC50 [14] | IC50 [15] | IC50 [16] | IC50 [17] | IC50 [18] | IC50 [19] | IC50 [20] | other results
Cc1ccc(F)c(NC(=O)Nc2ccc(-c3cccc4[nH]nc(NC(=O)CCCCCCCCCCCNC(=O)C[C@H](N)C(=O)N[C@@H](CCC(=O)N[C@@H](CCC(=O)N[C@@H](CCC(=O)N[C@@H](CCC(=O)O)C(=O)O)C(=O)O)C(=O)O)C(=O)O)c34)cc2)c1 [Compound 8] | > 100 µM | 5680 nM | > 100 µM | > 100 µM | > 100 µM | > 100 µM | 80.2 µM | 50.6 µM | > 100 µM | > 100 µM | > 100 µM | > 100 µM | 94.9 µM | 390 nM | > 100000 nM | 82.4 µM | > 100 µM | 190 nM | > 100 µM | > 100 µM | IC50 [21]: > 100 µM; IC50 [22]: > 100000 nM; IC50 [23]: > 100 µM; IC50 [24]: > 100 µM; IC50 [25]: > 100 µM; IC50 [26]: > 100 µM; IC50 [27]: > 100 µM; IC50 [28]: > 100 µM
Cc1ccc(F)c(NC(=O)Nc2ccc(-c3cccc4[nH]nc(NC(=O)C[C@H](N)C(=O)O)c34)cc2)c1 [Compound 10] | 6.37 µM | 270 nM | 3.79 µM | 4.85 µM | 7.83 µM | 3.88 µM | 2.43 µM | 1.84 µM | 14.5 µM | 36.8 µM | 14.4 µM | 5.38 µM | 1.36 µM | 10 nM | 2430 nM | 3.33 µM | 7.42 µM | 20 nM | 18 µM | 14.9 µM | IC50 [21]: 22.1 µM; IC50 [22]: 1640 nM; IC50 [23]: 15.3 µM; IC50 [24]: 5.29 µM; IC50 [25]: 8.73 µM; IC50 [26]: 6.19 µM; IC50 [27]: 7.38 µM; IC50 [28]: 6.98 µM
